The record followed here is US10023591B2, “Heterocyclic derivatives and use thereof” (C&C RESEARCH LABORATORIES, priority 2014, dated 2018).

Assay [1] deals with NCI-N87 stomach cancer cell line. Kind of assay: Cell growth inhibition assay, NCI-N87 (CellTiter-Glo). The format is cell-based. Conditions: Homo sapiens; NCI-N87, 5,000 cells/well, 96 hours. In short, it runs like this: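 Cells seeded at 3,000 (DU-145), 5,000 (NCI-N87) or 10,000 (LNCaP, MDA-MB-468) per well, LNCaP in medium with 10 ng/mL IL-6. Serially diluted compound for 96 h at 37 °C (MDA-MB-468 in air, others 5% CO2); viability by CellTiter-Glo luminescence versus 0.1% DMSO wells.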

The test system of another assay is STAT3. Kind of assay: STAT3 reporter gene assay (luciferase), LNCaP stable cell line pSTAT3-TA-luc, IL-6 stimulation. The format is cell-based, human. Conditions: Homo sapiens. In short, it runs like this:
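LNCaP cells stably carrying pSTAT3-TA-luc were plated 24 h in 3% DCC-FBS medium, then given compound followed by IL-6 (10 ng/mL final) for 24 h at 37 °C. Luciferase was read from lysates, with CellTiter-Glo viability on a duplicate plate. Stimulated 0.1% DMSO wells served as uninhibited control.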

The test system of a further assay is STAT1. As to the kind of experiment: STAT1 reporter gene assay (luciferase), U2OS stable cell line pGL4-STAT1-TA-luc, IFN-γ stimulation. Conditions: Homo sapiens, IFN-γ 50 ng/mL, 8 hours, read-out: IC50 (μM) pSTAT1. Format: cell-based, human. In short, it runs like this: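 U2OS cells stably carrying a STAT1-driven luciferase reporter were treated with serially diluted compounds plus IFN-γ (50 ng/mL final) for 8 h at 37 °C in 10% FBS medium. Luciferase read after lysis; parallel plate assessed for cytotoxicity by CellTiter-Glo.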

For assay [2], the system named is LNCaP prostate cancer cell line. Kind of assay: Cell growth inhibition assay, LNCaP (CellTiter-Glo). The note with it: Homo sapiens; LNCaP, 10,000 cells/well, medium with 10 ng/mL IL-6, 96 hours. The format is cell-based. How it is done: (§1) The inhibitory effects of the compounds of the present invention against the growth of cancer cells were evaluated as shown below. The cancer cell lines including prostate cancer cell lines (LNCaP, DU-145), stomach cancer cell line (NCI-N87), and breast cancer cell lines (MDA-MB-468) were cultured under the protocol provided by each supplier. A medium supplemented with 10 ng/mL of IL-6 was used for LNCaP, a prostate cancer cell line, when treated with a drug. Each type of cells to be used in experiments was sub-cultured in a 96-well plate by counting the exact number of cells using Tali™ Image-based Cytometer (Life Technologies). In a 96-well plate, DU-145 was employed with 3,000 cells/well; NCI-N87 was employed with 5,000 cells/well; and LNCaP and MDA-MB-468 were employed with 10,000 cells/well. The cells were treated with the compounds listed in Examples which were diluted in various concentrations. Upon completion of the compounds treatment, LNCaP, DU-145, NCI-N87 cells were cultured at 37° C. under 5% CO2 for 96 hours, and MDA-MB-468 cells were cultured at 37° C. in air for 96 hours. Subsequently, the cells were observed under microscope and drug precipitation and particular findings were investigated and recorded. And then, the 96-well plate was placed at room temperature for 30 minutes, added with 20 pt/well of CellTiter-Glo solution (Cat No. G7573, Promega) and shaken for 10 minutes, followed by being subjected to the measurement using PHERAstar™ microplate reader (BMG LABTECH) according to the supplier's general luminometer protocol. Wells where only culture liquid added without cell plating were used as a negative control, whereas wells where culture liquid containing 0.1% DMSO instead of the compounds listed in Examples were used as a positive control.

Assay [3] relates to DU-145 prostate cancer cell line. Kind of assay: Cell growth inhibition assay, DU-145 (CellTiter-Glo). Format: cell-based. The note with it: Homo sapiens; DU-145, 3,000 cells/well, 96 hours. As for the experimental part:
as §1

The subject of assay [4] is MDA-MB-468 breast cancer cell line. Kind of assay: Cell growth inhibition assay, MDA-MB-468 (CellTiter-Glo). Format: cell-based. The note with it: Homo sapiens, MDA-MB-468, 96 hours. As for the experimental part:
as §1

Consider `CC(C)(c1ccc2sc(C(=O)Nc3cc(Cl)nc(Oc4ccc(C(F)(F)F)cc4)c3)cc2c1)S(C)(=O)=O` [Example 67, N-(2-chloro-6-(4-(trifluoromethyl)phenoxy)pyridin-4-yl)-5-(2-(methylsulfonyl)propan-2-yl)benzo[b]thiophene-2-carboxamide], for which the IC50 in assay [1] was 0.021 µM; in the assay on STAT3, 0.0084 µM; with STAT1 it was above 50 µM; in assay [2], 0.047 µM; in assay [3], 0.0053 µM.

In the case of `CC(C)(c1ccc2sc(C(=O)Nc3cc(Cl)nc(Oc4ccc(F)c(Cl)c4)c3)cc2c1)S(C)(=O)=O` [Example 71, N-(2-chloro-6-(3-chloro-4-fluorophenoxy)pyridin-4-yl)-5-(2-(methylsulfonyl)propan-2-yl)benzo[b]thiophene-2-carboxamide], the IC50 in assay [1] was 0.02 µM; in the assay on STAT3, 0.011 µM; in the assay with STAT1 it was above 50 µM; in assay [4], 0.0056 µM.

On to `CC(C)(c1ccc2sc(C(=O)Nc3cc(Cl)nc(Oc4ccc(Cl)c(F)c4)c3)cc2c1)S(C)(=O)=O` [Example 72, N-(2-chloro-6-(4-chloro-3-fluorophenoxy)pyridin-4-yl)-5-(2-(methylsulfonyl)propan-2-yl)benzo[b]thiophene-2-carboxamide], for which the IC50 in assay [1] was 0.021 µM; in the assay with STAT3 it was 0.01 µM; with STAT1, above 50 µM; in assay [4] it was 0.004 µM.

As to `CC(C)(c1ccc2sc(C(=O)Nc3cc(Cl)nc(Oc4ccc(F)c(F)c4)c3)cc2c1)S(C)(=O)=O` [Example 79, N-(2-chloro-6-(3,4-difluorophenoxy)pyridin-4-yl)-5-(2-(methylsulfonyl)propan-2-yl)benzo[b]thiophene-2-carboxamide], the IC50 in assay [1] is 0.043 µM; in the assay on STAT3, 0.041 µM; in the assay on STAT1 it was above 50 µM; in assay [4], 0.0074 µM.

Consider `CC(C)(c1ccc2sc(C(=O)Nc3cc(Cl)nc(Oc4cccc(Cl)c4)c3)cc2c1)S(C)(=O)=O` [Example 80, N-(2-chloro-6-(3-chlorophenoxy)pyridin-4-yl)-5-(2-(methylsulfonyl)propan-2-yl)benzo[b]thiophene-2-carboxamide], for which the IC50 is 0.069 µM in assay [1], 0.04 µM in the assay with STAT3, above 50 µM in the assay with STAT1 and 0.0084 µM in assay [4].

Regarding `CC(C)(c1ccc2sc(C(=O)Nc3cc(Cl)nc(Oc4cccc(OC(F)(F)F)c4)c3)cc2c1)S(C)(=O)=O` [Example 81, N-(2-chloro-6-(3-(trifluoromethoxy)phenoxy)pyridin-4-yl)-5-(2-(methylsulfonyl)propan-2-yl)benzo[b]thiophene-2-carboxamide], the IC50 in assay [1] is 0.033 µM; in the assay with STAT3 it was 0.005 µM; with STAT1, above 50 µM; in assay [4], 0.0038 µM.

In the case of `CC(C)(c1ccc2sc(C(=O)Nc3cc(Cl)nc(Oc4ccc(Cl)c(Cl)c4)c3)cc2c1)S(C)(=O)=O` [Example 82, N-(2-chloro-6-(3,4-dichlorophenoxy)pyridin-4-yl)-5-(2-(methylsulfonyl)propan-2-yl)benzo[b]thiophene-2-carboxamide], the IC50 in assay [1] is 0.035 µM; in the assay with STAT3, 0.0058 µM; in the assay with STAT1 it was above 50 µM; in assay [4] it was 0.0041 µM.

Consider `CC(C)(c1ccc2sc(C(=O)Nc3cc(Cl)nc(Oc4ccc(Cl)cc4F)c3)cc2c1)S(C)(=O)=O` [Example 83, N-(2-chloro-6-(4-chloro-2-fluorophenoxy)pyridin-4-yl)-5-(2-(methylsulfonyl)propan-2-yl)benzo[b]thiophene-2-carboxamide], for which the IC50 in assay [1] was 0.02 µM; in the assay with STAT3, 0.0082 µM; in the assay on STAT1 it was above 50 µM; in assay [4], 0.0052 µM.

Turning to `CC(C)(c1ccc2sc(C(=O)Nc3cc(Cl)nc(Oc4ccc(OC(F)(F)F)cc4)c3)cc2c1)S(C)(=O)=O` [Example 84, N-(2-chloro-6-(4-(trifluoromethoxy)phenoxy)pyridin-4-yl)-5-(2-(methylsulfonyl)propan-2-yl)benzo[b]thiophene-2-carboxamide], the IC50 in assay [1] is 0.02 µM; with STAT3 it was 0.0065 µM; with STAT1, above 50 µM; in assay [4] it was 0.0026 µM.

With `CC(C)(c1ccc2sc(C(=O)Nc3cc(Cl)nc(OCc4ccc(Cl)cc4)c3)cc2c1)S(C)(=O)=O` [Example 86, N-(2-chloro-6-((4-chlorobenzyl)oxy)pyridin-4-yl)-5-(2-(methylsulfonyl)propan-2-yl)benzo[b]thiophene-2-carboxamide], the IC50 is 0.15 µM in assay [1], 0.089 µM in the assay with STAT3, above 50 µM in the assay on STAT1 and 0.024 µM in assay [4].

As to `CS(=O)(=O)Cc1ccc2sc(C(=O)Nc3cc(Cl)cc(-c4ccc(F)cc4F)c3)cc2c1` [Example 95, N-(5-chloro-2′,4′-difluoro-[1,1′-biphenyl]-3-yl)-5-((methylsulfonyl)methyl)benzo[b]thiophene-2-carboxamide], the IC50 with STAT3 was determined as 0.028 µM; with STAT1, 35.7 µM; in assay [2], 0.023 µM; in assay [3], 0.013 µM.

Consider `CC(C)(c1ccc2sc(C(=O)Nc3cc(Cl)cc(C4(c5ccc(Cl)cc5)CC4)c3)cc2c1)S(C)(=O)=O` [Example 97, N-(3-chloro-5-(1-(4-chlorophenyl)cyclopropyl)phenyl)-5-(2-(methylsulfonyl)propan-2-yl)benzo[b]thiophene-2-carboxamide], for which the IC50 in the assay with STAT3 was 0.025 µM; in the assay with STAT1, above 50 µM; in assay [2], 0.028 µM; in assay [3], 0.016 µM.

With `CN(c1cc(Cl)cc(NC(=O)c2cc3cc(C(C)(C)S(C)(=O)=O)ccc3s2)c1)c1ccc(F)cc1F` [Example 98, N-(3-chloro-5-((2,4-difluorophenyl)(methyl)amino)phenyl)-5-(2-(methylsulfonyl)propan-2-yl)benzo[b]thiophene-2-carboxamide], the IC50 in the assay with STAT3 was 0.031 µM; in the assay on STAT1, above 50 µM; in assay [2] it was 0.031 µM; in assay [3] it was 0.0066 µM.

With `CN(c1ccc(Cl)cc1)c1cc(Cl)cc(NC(=O)c2cc3cc(C(C)(C)S(C)(=O)=O)ccc3s2)c1` [Example 99, N-(3-chloro-5-((4-chlorophenyl)(methyl)amino)phenyl)-5-(2-(methylsulfonyl)propan-2-yl)benzo[b]thiophene-2-carboxamide], the IC50 is 0.11 µM with STAT3, above 50 µM with STAT1, 0.14 µM in assay [2] and 0.046 µM in assay [3].

For the compound `CN(c1ccc(Cl)cc1)c1cc(NC(=O)c2cc3cc(C(C)(C)S(C)(=O)=O)ccc3s2)cc(Cl)n1` [Example 100, N-(2-chloro-6-((4-chlorophenyl)(methyl)amino)pyridin-4-yl)-5-(2-(methylsulfonyl)propan-2-yl)benzo[b]thiophene-2-carboxamide], the IC50 in the assay with STAT3 is 0.07 µM; in the assay with STAT1, above 50 µM; in assay [2], 0.14 µM; in assay [3], 0.026 µM.

As to `Cc1cnc(Oc2cc(NC(=O)c3cc4cc(C(C)(C)S(C)(=O)=O)ccc4s3)cc(Cl)n2)s1` [Example 109, N-(2-chloro-6-((5-methylthiazol-2-yl)oxy)pyridin-4-yl)-5-(2-(methylsulfonyl)propan-2-yl)benzo[b]thiophene-2-carboxamide], the IC50 in assay [1] is 1.7 µM; in the assay with STAT3, 0.46 µM; in the assay with STAT1, above 50 µM; in assay [4], 0.068 µM.
